According to ChEMBL document CHEMBL4765294, “Discovery and evaluation of new compounds targeting ribosomal protein S1 in antibiotic-resistant Mycobacterium Tuberculosis” (Eur J Med Chem, 2020):
Calls of active or inactive are those of the source. No cut-off for these calls is given here.

What was measured:
[1] = system: Mycobacterium tuberculosis; assay: Binding affinity to Mycobacterium tuberculosis 15N-labelled wild type RpsA (280 to 438 residues) by chemical shift perturbation based 15N-1H HSQC spectral analysis
[2] = Binding affinity to Mycobacterium tuberculosis RpsA C-terminal domain (285 to 476 residues) assessed as dissociation constant by fluorescence quenching titration based analysis
[3] = system: Mycobacterium tuberculosis; assay: Binding affinity to Mycobacterium tuberculosis RpsA C-terminal domain (285 to 476 residues) assessed as quenching rate constant by fluorescence quenching titration based analysis
[4] = system: Mycobacterium tuberculosis; assay: Binding affinity to Mycobacterium tuberculosis RpsA C-terminal domain (285 to 476 residues) at 500 uM by STD based analysis

Compound | Activity [1] | Kd [2] | Kq [3] | Activity [4]
Cc1ccc(CNC(=O)COc2cc(O)c3c(=O)cc(-c4ccccc4)oc3c2)cc1 | Active | 3.24 µM | 6.45 10^12/M/s | Active
O=C(O)c1cnccn1 [PYRAZINOIC ACID] |  | 9.65 µM | 8.22 10^11/M/s | 
CC(Sc1nc(N)cc(N)n1)C(=O)O (configuration not stated) |  | 2.67 µM |  | 
O=C(O)CSc1nc2nc[nH]c2c(=O)[nH]1 | Active | 6.35 µM | 1.79 10^12/M/s | Active
Cc1cccc(CNC(=O)COc2cc(O)c3c(=O)cc(-c4ccccc4)oc3c2)c1 | Active | 5.66 µM | 1.94 10^12/M/s | Active
Cc1cccc(CNC(=O)CSc2nc3nc[nH]c3c(=O)[nH]2)c1 | Active | 2.67 µM | 3.75 10^12/M/s | Active
Cc1ccc(CNC(=O)CSc2nc3nc[nH]c3c(=O)[nH]2)cc1 | Active | 7.61 µM | 4.09 10^12/M/s | Active
CCOC(=O)CSc1nc2nc[nH]c2c(=O)[nH]1 | Active | 0.81 µM | 3.37 10^12/M/s | Active
